Measurements from patent US12059427B2, “Treatments for cachexia” (YINUOKE MEDICINE SCIENCE AND TECHNOLOGY COMPANY LTD., priority 2018, dated 2024).
“Also recorded” adds a separate entry of the source.

What was measured:
[1] = tested on: cachectic Balb/c mice injected with C26 tumor cells; assay: Kaplan-Meier survival analysis of cachectic mice (C26 model); assay type: in vivo, mouse
[2] = tested on: cachectic Balb/c mice injected with C26 tumor cells; assay: Body weight of cachectic mice (C26 cachexia mouse model); assay type: in vivo
[3] = ~50 day period, two 3-day/one-injection-per-day cycles s.c., 0.3 mg Cytarabine, 0.1 mg Ketorolac or combination vs PBS
[4] = 0.3 mg Cytarabine, 0.1 mg Ketorolac or combination (0.3 mg + 0.1 mg) in PBS s.c. on three consecutive days (1 cycle), 8 days observation, vs untreated

In the case of `O=C(c1ccccc1)c1ccc2n1CC[C@H]2C(=O)O` [(R)-Ketorolac], the “survival (Kaplan-Meier)” value ([1]; two cycles of daily oral administration, 40 day period, vs PBS vehicle) is reported as “prolong survival of cachectic mice”, the “survival (Kaplan-Meier)” value ([1]; two cycles of daily oral administration, 40 day period, vs PBS vehicle, listed as (R)-ketorolac) is reported as “significant efficacy as a single agent increasing the survival of cachectic mice” and the “body weight of cachectic mice” value ([2]; 0.05 mg orally, three consecutive days per cycle, 6 days/2 cycles, vs PBS) is reported as “reverse body weight drop”. The “body weight of cachectic mice” value ([2]; 0.05 mg orally, three consecutive days per cycle, 6 days/2 cycles, vs PBS, listed as (R)-ketorolac) was “regained body weight after initiation of the treatment and maintained stabilized body weight during the treatment”.
For `Nc1ccn([C@@H]2O[C@H](CO)[C@@H](O)[C@@H]2O)c(=O)n1` [Cytarabine, 1-(β-D-Arabinofuranosyl)cytosine], the “survival (Kaplan-Meier)” value [1, 3] was “highly significant increase in survival; also recorded: prolong survival of cachectic mice”, the “body weight of cachectic mice” value [2, 4] was “the body weight drop eventually reverses for all treated mice; also recorded: reverse body weight drop in cachectic mice” and the “transient weight loss after treatment” value ([2]; days 0-5 after start of treatment, 0.3 mg Cytarabine alone vs combination with 0.1 mg Ketorolac, s.c.) was “transient weight loss seen on days 0-5”.
With `O=C(c1ccccc1)c1ccc2n1CCC2C(=O)O` (stereo not drawn) [Ketorolac, Ketorolac tromethamine] the “survival (Kaplan-Meier)” value [1, 3] was “finally ketorolac alone” and the “body weight of cachectic mice” value [2, 4] was “the body weight drop eventually reverses for all treated mice; also recorded: reverse body weight drop in cachectic mice”.
